What was measured:
[1] = system: DSS-induced enteritis model; test: Effects of single herbal extracts in DSS-induced enteritis model (Example 2); type: in vivo, mice (C57BL/6); settings: 5-ASA 25 mg/kg orally once/day for 14 days; 2.5% DSS 5 days
Method: After 8-week-old male mice (C57BL/6) were acclimated for one week or longer, the mice were classified into: a normal group; a DSS and distilled water administration group in which Dextran Sulfate Sodium (DSS; 36,000-50,000 MW, MP Biomedicals, USA) was administered to induce ulcerative colitis and then distilled water was administered (negative control); a DSS and 5-aminosalicylic acid (5-ASA; Tokyo Chemical Industry Co., Japan) administration group (positive control group); and groups in which DSS and respective single herbal extracts prepared in Example 1 were administered (experimental groups).
(§1) The DSS-induced enteritis model has been known to show similar morphological changes and symptoms to human ulcerative colitis. The mice were fed 100 mL of DSS diluted in drinking water to 2.5%, which was then changed every two days. After the induction by DSS for 5 days, drinking water was changed.
(§2) 5-ASA, used as a drug for the positive control group, was diluted in drinking water to 25 mg/kg, and administered orally once/day for 14 days from the start date of the experiment. Each single herbal extract was orally administered at a dose of 100 mg/kg once/day for 14 days from the start date of the experiment.
The mice of each group were weighed to calculate weight loss rates, and the feces state and the presence of bloody feces were checked, every day after the start of the experiment. Scoring was conducted for the three indicators according to the standards in Table 2 below.
Disease activity index (DAI), which is the sum calculated according to the scoring standards on Table 2 above, is shown in Table 3 below and FIG. 1.
On the last day of the experiment, the mice were sacrificed with carbon dioxide gas, and the colon site was excised. The colon length was measured from the excised colon, and then the state of the intestinal mucosa was investigated by incision in the longitudinal direction.
The histological colitis score was calculated by measuring the lengths of the mucosal ulcer site and the damaged mucosal layer in the colon tissue and averaging the values.

[2] = system: DNBS-induced enteritis model; test: Effects of single herbal extracts on DNBS-induced enteritis model (Example 3); type: in vivo, mice (C57BL/6); settings: 5-ASA 25 mg/kg orally once/day for 5 days; DNBS rectal
Method: After 8-week-old male mice (C57BL/6) were acclimated for one week or longer, the mice were classified into: a normal group; a DNBS and distilled water administration group in which dinitrobenzene sulfonic acid (DNBS; Sigma-Aldrich, USA) was administered to induce inflammatory bowel disease and then distilled water was administered (negative control); a DNBS and 5-ASA administration group (positive control group); and groups in which DNBS and extracts of 11 kinds of herbs (Terminaliae Fructus, Selaginellae Herba, Schizonepeta tenuifolia Briquet, Geranii Herba, Psoraleae Semen, Thujae Orientalis Folium, Coptis Rhizome, Galla Rhois, Ailanthi Radicis Cortex, Puerariae Radix, and Liriopis Tuber) selected in Example 2 (experimental groups).
The DNBS-induced enteritis model is known to be closely related with human Crohn's disease in that T cell-mediated immune response is induced. DNBS in 50% ethanol/distilled water at 40 mg/mL was prepared, and 0.1 mL was slowly injected into the rectum of the mouse by using a catheter. 5-ASA, used as a drug for the positive control group, was diluted in drinking water to 25 mg/kg, and administered orally once/day for 5 days from the start date of the experiment. […]
On the last day of the experiment, the mice were sacrificed with carbon dioxide gas, and the colon site was excised, and the colon length was measured.

DSS-induced colitis mice [3] = test: Effects of single herbal extracts with different concentration in DSS-induced colitis mice (Example 4); type: in vivo, mice (C57BL/6); settings: 5-ASA 25 mg/kg orally; 2.5% DSS 6 days
Method: After 8-week-old male mice (C57BL/6) were acclimated for one week or longer, the mice were classified into: a normal group; a DSS and distilled water administration group (negative control); a DSS and 5-ASA administration group (positive control group); and groups in which DSS and extracts of four kinds of herbs (Coptis Rhizome, […] Herba, Schizonepeta tenuifolia Briquet, and […] Herba) selected in Example 1 (experimental groups). The mice were fed 100 mL of DSS diluted in drinking water to 2.5%, which was then changed every two days. To evaluate the effects of single herbal extracts with different concentrations, DSS was administered for a total of 6 days, and then drinking water was changed. 5-ASA was distilled in drinking water to 25 mg/kg and orally administered. Each single herbal extract was orally administered at doses of 10, 30, and 100 mg/kg once/day for 14 days from the start date of the experiment, and the body weight change, feces state, and the presence of bloody feces were checked every day. In addition, DAI scores were calculated based on the results of the body weight change, feces state, and the presence of bloody feces, and the results are shown in Table 9 below and FIG. 6.

DSS-induced colitis mice [4] = test: Comparison of single extracts and mixed extracts in DSS-induced colitis mice (Example 5); type: in vivo, mice (C57BL/6); settings: 5-ASA 25 mg/kg orally; 2.5% DSS 5 days
Method: After 8-week-old male mice (C57BL/6) were acclimated for one week or longer, the mice were classified into: a normal group; a DSS administration group, a DSS and distilled water administration group (negative control); a DSS and 5-ASA administration group (positive control group); and a group administered DSS and Coptis Rhizome 100 mg/kg, a group administered DSS and Schizonepeta tenuifolia Briquet 10 mg/kg, and a group administered DSS, Coptis Rhizome 100 mg/kg, and Schizonepeta tenuifolia Briquet 10 mg/kg (mixed extract administration group). The mice were fed 100 mL of DSS diluted in drinking water to 2.5%, which was then changed every two days. After DSS administration for 5 days, drinking water was changed. 5-ASA, used as a drug for the positive control group, was diluted in drinking water to 25 mg/kg, and orally administered. Coptis Rhizome 100 mg/kg, Schizonepeta tenuifolia Briquet 10 mg/kg, and a 10:1 mixture of Coptis Rhizome and Schizonepeta tenuifolia Briquet at a dose of 110 mg/kg were orally administered once/day for 14 days, and the body weight change rate, feces state, and the presence of bloody feces were checked every day.

TNF-α = test: Quantitative PCR of TNF-α expression in colon of DSS-induced colitis mice (Example 6); type: in vivo, mouse; settings: relative value vs normal group, GAPDH standard; colon RNA; 5-ASA 25 mg/kg orally
Method: (§3) RNA was isolated from the colon of the mice collected in Example 5 by using TRIzol (Invitrogen, USA). Thereafter, quantitative PCR through primers specific to the inflammatory factors TNF-α, IL-1β, IL-17, IL-23, CCL2, and MIP-2, and SYBR green (Takara, Japan) was performed using cDNA obtained by performing RT-PCR. The expression levels of RNA obtained therefrom were expressed as a relative change compared with the untreated group (normal group) by using GAPDH mRNA as the standard gene. The experimental results are shown in Tables 11 to 16 below and FIGS. 8 to 13.

IL-1β = test: Quantitative PCR of IL-1β expression in colon of DSS-induced colitis mice (Example 6); type: in vivo, mouse; settings: relative value vs normal group, GAPDH standard; colon RNA; 5-ASA 25 mg/kg orally
Method: as §3

IL-17 = test: Quantitative PCR of IL-17 expression in colon of DSS-induced colitis mice (Example 6); type: in vivo, mouse; settings: relative value vs normal group, GAPDH standard; colon RNA; 5-ASA 25 mg/kg orally
Method: as §3

IL-23 = test: Quantitative PCR of IL-23 expression in colon of DSS-induced colitis mice (Example 6); type: in vivo, mouse; settings: relative value vs normal group, GAPDH standard; colon RNA; 5-ASA 25 mg/kg orally
Method: as §3

MIP-2 = test: Quantitative PCR of MIP-2 expression in colon of DSS-induced colitis mice (Example 6); type: in vivo, mouse; settings: relative value vs normal group, GAPDH standard; colon RNA; 5-ASA 25 mg/kg orally
Method: as §3

CCL2 = test: Quantitative PCR of CCL2 expression in colon of DSS-induced colitis mice (Example 6); type: in vivo, mouse; settings: relative value vs normal group, GAPDH standard; colon RNA; 5-ASA 25 mg/kg orally
Method: as §3

[5] = system: DSS-induced enteritis model; test: Effects of single and mixed herbal extracts on DSS-induced enteritis model (Example 11); type: in vivo, mice (C57BL/6); settings: 5-ASA 25 mg/kg orally once/day for 10 days; 2.5% DSS 5 days
Method: After 8-week-old male mice (C57BL/6) were acclimated for one week or longer, the mice were classified into: a normal group;
a DSS and distilled water administration group in which Dextran Sulfate Sodium (DSS; 36,000-50,000 MW, MP Biomedicals, USA) was administered to induce ulcerative colitis and then distilled water was administered (negative control); a DSS and 5-aminosalicylic acid (5-ASA; Tokyo Chemical Industry Co., Japan) administration group (positive control group); and groups in which together with DSS, Coptis Rhizome and Schizonepeta tenuifolia Briquet extracts prepared in Example 1 and mixed herbal extracts prepared in Example 7 were administered (experimental groups).
as §1
as §2, with “10” for “14”, “mixed” for “single”, “50” for “100”
The mice of each group were weighed to calculate weight loss rates every day after the start of the experiment.
In addition, DAI scores were calculated based on the results of the body weight change, feces state, and the presence of bloody feces, and the results are shown in Table 23 below and FIG. 17.
On the last day of the experiment, the mice were sacrificed with carbon dioxide gas, and the colon site was excised.

Nc1ccc(O)c(C(=O)O)c1 [Positive control, 5-aminosalicylic acid]
Colon length (cm) [1]: 5.6 cm
DAI score of Day 10 [1]: 2.4
Histological colitis score [1]: 1.00
Colon length (cm) [2]: 7.10 cm
Survival rate (%) [2]: 60%
Body weight change rate for 14 days (%) (DSS-induced colitis mice [3]): −19.38%
DAI score of Day 10 (DSS-induced colitis mice [3]): 4.8
DAI score of Day 10 (DSS-induced colitis mice [4]): 2.8
TNF-α expression level (TNF-α): 2.16
IL-1β expression level (IL-1β): 2.28
IL-17 expression level (IL-17): 1.77
IL-23 expression level (IL-23): 1.65
MIP-2 expression level (MIP-2): 1.86
CCL2 expression level (CCL2): 3.26
Body weight change rate for 10 days (%) [5]: −11.66%
Colon length (cm) [5]: 7.04 cm
DAI score of DAY 10 [5]: 4.8
